Legend:
[1] = Thermal stability of the solid (90° C., 7 days, HPLC peak areas); assay type: physicochemical
Procedure: 0.3 mg of the test compound, e.g. comparative example 11 were solved in 0.1 ml dimethylsulfoxide and 0.4 ml acetonitrile. Then 1.0 ml water was added. For complete dissolution the HPLC vial was shaken and sonicated. This solution was immediately analyzed by HPLC (reference at t0). 0.3 mg of the test compound was weighed into another HPLC vial. The vial was capped and stored for 7 days in a heating block at 90° C.
After this time the vial was decapped and 0.1 ml dimethylsulfoxide and 0.4 ml acetonitrile were added to the stressed compound. Then 1.0 ml water was added. For complete dissolution the HPLC vial was shaken and sonicated. The sample was analyzed by HPLC (sample after 1 week). The peak areas in percentage are used for quantification.

[2] = tested on: PAH minipig model; assay: Deposited lung dose (absorbing filters) in PAH minipig model and prediction of human dose and duration of effect; assay type: in vivo, Göttingen minipig
Procedure: The anesthetized thromboxane A2 challenged PAH-minipig model (see experimental part C-2.1) is considered to be the most relevant and sensitive model for the prediction of the human minimal effective and effective doses (MED, ED). To determine effective LDs, experiments in minipigs were repeated with the difference that absorbing filters were attached at the end of the tubes to determine the deposited lung dose. […] Assuming a minimal effective ND of 3 μg/kg (5% reduction in PAP) the minimal effective deposited LD is considered as 0.15 μg/kg (see FIG. 1).
The resulting lung deposited doses in the minipig of 0.15, 0.5, 1.5 and 5 μg/kg were multiplied by 60 kg to achieve the lung dose in humans. Thus, the FPD reflecting the PAP reduction for a 60 kg human are calculated to be 9, 30, 90 and 300 μg.
Thus, via a direct up-scaling from minipig, the predictive MED (5% PAP reduction) for a human based on a 60 kg body weight is calculated to be 9 μg LDD, not considering protein binding within the respiratory tract. As a surrogate for unbound concentrations, which are the likely active concentrations in the lung, we considered respective differences in fractions unbound in plasma of minipig and human. This consideration results in a minimum effective lung dose (LD) for a 60 kg participant of 41 μg LDD for the assumed 5% reduction on PAP. Consequently, the predictive minimal human effective dose is in the range from 9 μg LDD to 41 μg LDD based on a 60 kg body weight (see FIG. 2).
This translation was also conducted for effective doses (effective PAP reduction>five up to 35 percent for longer time periods up to the complete observation period of 4 hrs) based on the relative lung deposited doses in minipigs as listed in Table 2.
For DPI products, it is assumed that the fine particle dose (FPD) is basically equivalent to the human lung deposited dose.
With respect to a prediction of the duration of action for human studies comparative example 11 was compared in the PAH minipig model after inhaled application to Ventavis® (=Iloprost, 10 μg/kg nominal dose), which we used as a clinical reference. […] Therefore the duration of action is more than 6 times longer compared to Ventavis in this preclinical animal model.
In order to generate a human dose estimate, experiments in the PAH minipig model for comparative example 11 were repeated with the difference that absorbing filters were attached at the end of the tubes to determine the deposited lung dose. […] The arithmetic mean of the aerosol fraction deposited on the filters is 5% based on all results of the filter experiments, resulting in relative lung deposited doses of about 0.15 μg/kg (3 μg/kg nominal dose), 0.5 μg/kg (10 μg/kg nominal dose), 1.5 μg/kg (30 μg/kg nominal dose) and 5 μg/kg (100 μg/kg nominal dose). Assuming a minimal effective nominal dose of 3 μg/kg for a 5% reduction in PAP and a mean nebulization efficiency of 5%, the minimal effective deposited lung dose is considered as 0.15 μg/kg based on the PAH minipig model. Therefore, for a human patient of 60 kg body weight a minimal effective lung deposited dose of 9-41 μg, depending on whether or not an effect of different protein binding (see table 2.1.5) is postulated. Considering 100 μg/kg as effective dose in the minipig model, 300-1370 μg lung deposited dose is postulated as effective dose, again depending on the consideration of different interspecies protein binding.

[3] = tested on: plasma proteins; assay: Protein binding via Transil assay, human plasma; assay type: in vitro ADME; details: plasma
Description: The distribution of a test substance between Transil® (phosphatidylcholine lipid bilayers immobilized on silica beads) and plasma is a characteristic feature of any pharmaceutical compound and is dependent on its extent of binding to plasma proteins. By comparing the distribution between Transil® and buffer with the distribution between Transil® and plasma of any species of interest, the unbound fraction in the plasma of the respective animal species can be calculated in vitro. The respective plasma and buffer concentrations were determined via a radioactivity analysis. A detailed description of the method and its validation was published by Schuhmacher et al. (2).

[4] = minipig 0.15 μg/kg lung deposited (3 μg/kg nominal dose)
[5] = minipig 0.50 μg/kg lung deposited (10 μg/kg nominal dose)
[6] = minipig 1.5 μg/kg lung deposited (30 μg/kg nominal dose)
[7] = minipig 5.0 μg/kg lung deposited (100 μg/kg nominal dose)

O=C(O)c1ccc(CCN(CCc2ccccc2OCc2ccc(-c3ccc(C(F)(F)F)cc3)cc2Cl)[C@H]2CCCc3nc(C(=O)O)ccc32)cc1 [comparative example 11, (5S)-5-{[2-(4-carboxyphenyl)ethyl][2-(2-{[3-chloro-4′-(trifluoromethyl)[biphenyl]-4-yl]methoxy}phenyl)ethyl]amino}-5,6,7,8-tetrahydroquinoline-2-carboxylic acid]
thermal stability [1]: stable | minimal effective deposited lung dose ([2]; 5% reduction in PAP, mean nebulization efficiency 5%, minipig): 0.15 µg/kg | minimal effective nominal dose (MED) ([2]; 5% reduction in PAP, nebulized liquid solution, minipig): 3 µg/kg | predictive minimal human effective lung deposited dose ([2]; 60 kg body weight, 5% PAP reduction, without/with protein binding difference): 9 to 41 µg | effective lung deposited doses in humans expected from minipig data ([2]; 60 kg human): 9 to 1370 µg | supposed duration of action in humans ([2]; assumption that duration is comparable between PAH minipig model and humans): at least 6 hours | lung deposited dose postulated as effective dose in humans ([2]; considering 100 μg/kg as effective dose in the minipig model, 60 kg): 300 to 1370 µg | Total lung deposited dose in a 60 kg human, interspecies difference in protein binding considered [2, 4]: 41 µg | Total lung deposited dose in a 60 kg human, interspecies difference in protein binding not considered [2, 4]: 9 µg | Total lung deposited dose in a 60 kg human, interspecies difference in protein binding considered [2, 5]: 137 µg | Total lung deposited dose in a 60 kg human, interspecies difference in protein binding not considered [2, 5]: 30 µg | Total lung deposited dose in a 60 kg human, interspecies difference in protein binding considered [2, 6]: 410 µg | Total lung deposited dose in a 60 kg human, interspecies difference in protein binding not considered [2, 6]: 90 µg | Total lung deposited dose in a 60 kg human, interspecies difference in protein binding considered [2, 7]: 1370 µg | Total lung deposited dose in a 60 kg human, interspecies difference in protein binding not considered [2, 7]: 300 µg | highest effective dose in the minipig model without systemic side effects (BP reduction) ([2]; nominal dose, inhaled): 100 µg/kg | ratio of fraction unbound minipig/human [3]: 4.55

Reference: patent US12138256B2, “Treatment of cardiopulmonary disorders” (Bayer Aktiengesellschaft, priority 2021, dated 2024)
